Assay results from US9248149B2, “Methods for treating a neoplastic disease in a subject using inorganic selenium-containing compounds” (THE BOARD OF TRUSTEES OF THE LELAND STANFORD JUNIOR …, priority 2003, dated 2016).

Legend:
[1] = tested on: LAPC-4 prostate cancer cells; assay: MTS cell proliferation assay; assay type: cell-based, human; conditions: 48 hours
Experimental: (§1) Cell Cultures and Treatments. LAPC-4 prostate cancer cells (provided by Dr. Charles Sawyers, UCLA) were cultured in phenol red free RPMI 1640 (Life Technologies, Rockville, Md.) supplemented with 10% fetal bovine serum (Gemini Bio-Products, Woodland, Calif.) at 37° C. in a humidified atmosphere with 5% CO2.
Cell proliferation assay. Cells were seeded in 96-well plates (10,000 cells/well) and treated with selenite for 48 hours. Cell survival was assayed using the CellTiter 96 AQueous One Solution Cell Proliferation Assay (Promega, Madison, Wis.). The MTS tetrazolium solution was added directly to the wells, incubated at 37° C. for 3 hours, and then the absorbance was read at 490 nm with a 96 well plate reader (Vmax Kinetic Microplate Reader, Molecular Devices, Sunnyvale, Calif.).

[2] = tested on: LAPC-4 prostate cancer cells; assay: Apoptosis as sub-G1 fraction by FACS of PI-stained cells; assay type: cell-based, human; conditions: for percentage of sub-G1 cells (apoptosis): 48 hours
Experimental: as §1
Detection of Apoptosis. Flow cytometry analysis (FACS) analysis of propidium iodide (PI)-stained cells was used to quantify the percentage of apoptotic cells as the fraction of cells with a hypodiploid amount of DNA (Sub-G1). Cells were fixed and permeabilized with 100% ice-cold ethanol at 4° C. overnight. The cells were resuspended in 500 μl of buffer (phosphate buffered saline (PBS), 5 mM EDTA) and incubated with 200 μg/ml RNase A for 30 min at room temperature and then 50 μg/ml PI for 10 min at room temperature. The cell cycle distribution was analyzed using Facstar flow cytometry (Becton-Dickinson, San Jose, Calif.). Cleavage of Caspase-3 as a marker of caspase-mediated apoptosis was also detected by immunoblot analysis (see below).

LAPC-4 cells [3] = assay: GSH-reductase recycling assay, intracellular GSH and GSSG; assay type: cell-based, human; conditions: 10 μM selenite
Experimental: Determination of Intracellular GSH and GSSG Content. The determination of intracellular GSH and GSSG content following exposure to selenite was performed using the GSH-reductase recycling assay (Vandeputte et al., Cell Biol Toxicol, 10: 415-421 (1994)). This assay measures the reaction of GSH with 5,5′-dithiobis(2-nitrobenzoic acid) (DTNB). Briefly, cells (floating and adherent) were rinsed in cold stock buffer (143 mM sodium phosphate, 6.3 mM EDTA, pH7.4), and lysed by repeated freeze thawing in 130 μl of 10 mM HCl. Following lysis a 10 μl sample was removed and used for protein determination. Proteins were precipitated on ice for 15 min with 30 μl of 6.5% sulfosalicyclic acid and centrifuged for 15 min at 2000×g and 4° C. The supernatants were collected and stored at −80° C. until assayed. The 96-well plate assay was prepared by mixing 20 μl of sample or known GSH standard, 20 μl of stock buffer, 200 μl of reaction buffer (1 mM 5,5′-dithiobis(2-nitrobenzoic acid (DTNB) and 0.34 mM nicotinamide adenine dinucleotide phosphate (NADPH) in stock buffer), and 40 μl of GSH reductase (8.5 U/ml). The reaction was recorded kinetically at 30-sec intervals for 6 min at a wavelength of 405 nm GSSG was measured following GSH derivatization with 2-vinylpyridine and triethanolamine. GSSG was measured as described above using known GSSG standards. The concentration of GSH and GSSG was expressed as nmol/mg of protein.

[4] = tested on: normal prostate cells (E-PZ-3); assay: GSH-reductase recycling assay, GSH:GSSG ratio; assay type: cell-based, human; conditions: 25 μM selenite, 48 hours
From the text: (§2) Primary prostate epithelial cell strains from normal prostate (PZ) and prostate cancer (CA) tissue were provided by Dr. Donna Peehl (Stanford University) using well established methods she has previously described (Peehl, Human prostatic epithelial cells. In: Culture of Epithelial Cells, 2nd edition, Freshney, R. I. and Freshney, M. G. (eds.), Wiley-Liss, Inc., N.Y., 171-194 (2002)). Three matched pairs of normal and cancer cell strains were available for study (E-PZ/CA-1, E-PZ/CA-2, and E-PZ/CA-3). Normal cell strains were obtained from a region of the prostate peripheral zone not involved in cancer. E-CA-1, E-CA-2, and E-CA-3 cell strains were derived from prostate carcinomas. Cells were treated at 50-70% confluence.
(§3) Determination of Intracellular GSH and GSSG Content. […] The 96-well plate assay was prepared by mixing 20 μl of sample or known GSH standard, 20 μl of stock buffer, 200 μl of reaction buffer (1 mM 5,5′-dithiobis(2-nitrobenzoic acid (DTNB) and 0.34 mM nicotinamide adenine dinucleotide phosphate (NADPH) in stock buffer), and 40 μl of GSH reductase (8.5 U/ml). The reaction was recorded kinetically at 30-sec intervals for 6 min at a wavelength of 405 nm GSSG was measured following GSH derivatization with 2-vinylpyridine and triethanolamine. GSSG was measured as described above using known GSSG standards. The concentration of GSH and GSSG was expressed as nmol/mg of protein.

[5] = tested on: prostate cancer cells (E-CA-3); assay: GSH-reductase recycling assay, GSH:GSSG ratio; assay type: cell-based, human; conditions: 25 μM selenite, 48 hours
From the text: as §2, §3

[6] = tested on: DU 145 prostate cancer cells; assay: GSH-reductase recycling assay, GSH:GSSG ratio; assay type: cell-based; conditions: 10 μM selenite, basal level 146.4±14.0
Experimental: DU 145 prostate cancer cells (American Type Culture Collection, Rockville, Md.) were cultured in RPMI 1640 (+phenol red) supplemented with 10% fetal bovine serum. When the cells reached 50% confluence the media was replaced and selenite was added at the noted concentrations.
as §3, with “Content. The determination of intracellular GSH and GSSG content following exposure to selenite was performed using the GSH-reductase recycling assay (Vandeputte et al., Cell Biol Toxicol, 10: 415-421 (1994)). This assay measures the reaction of GSH with 5,5′-dithiobis(2-nitrobenzoic acid) (DTNB).” for “Content.”

LAPC-4 cells [7] = assay: Clonogenic survival assay; assay type: cell-based, human
Experimental: (§4) Clonogenic Survival Assays. In Examples 1-4 below, LAPC-4 cells were treated with or without selenite for 6 hours prior to receiving 2 Gy of ionizing radiation. In other Examples, LAPC-4 and DU 145 cells were treated with 10 μM selenite for 6 or 12 hours treatment with 2 or 5 Gy of γ-irradiation.
(§5) Following irradiation cells were trypsinized, counted, and seeded in triplicate into 60 mm dishes. At least two dilutions of cells were used for each treatment group. Plated cells were allowed to grow for 14 or 17 days before being stained with 0.25% crystal violet in 75% ethanol. Resulting colonies with greater than 50 cells were scored. The surviving fraction was calculated as the plating efficiency of treated cells divided by the plating efficiency of untreated cells. SF2 is the survival fraction of exponentially growing cells that were irradiated at the clinically relevant dose of 2 Gy. The SF2 enhancement ratio (SF2 ER) is defined here as the SF2 without treatment divided by the SF2 for cells treated with selenite.

DU 145 cells = assay: Clonogenic survival assay; assay type: cell-based; conditions: for SF2: normalized for killing from selenite alone, radiation alone 0.554; for surviving fraction, selenite alone: assessed at 17 days
Experimental: as §4, §5

LAPC-4 tumors = assay: Selenite and radiation combination therapy in mice with LAPC-4 tumors; assay type: in vivo

For `O=[Se](O)O` [selenite, Sodium selenite], the Cell proliferation ([1]; 10 μM selenite) was 53.3 % of control, the Cell proliferation ([1]; 25 μM selenite) was 33.4 % of control and the “percentage of sub-G1 cells (apoptosis)” value ([2]; 10 μM selenite) was 14.5%. For the same compound, the “percentage of sub-G1 cells (apoptosis)” value ([2]; 25 μM selenite) was 26.1%, the “decrease of GSH:GSSG ratio” value (LAPC-4 cells [3]; 6 hours) was 88.3% and the “GSH:GSSG ratio” value (LAPC-4 cells [3]; 6 hours, untreated 129.4±13.6) was 15.1±2.3. The “total GSH level” value (LAPC-4 cells [3]; 48 hours, basal level 52.1±5.6) was 11.8 ± 2.1 nmol/mg, the “decrease of GSH:GSSG ratio” value [4] was 41.1% and the “decrease of GSH:GSSG ratio” value [5] was 65.9%. For the same compound, the “GSH:GSSG ratio” value ([6]; 6 hours) was 57.5±13.8, the “GSH:GSSG ratio” value ([6]; 12 hours) was 5.7±1.8 and the SF2 (LAPC-4 cells [7]; 10 μM selenite 6 hr pre 2 Gy γ-irradiation, normalized for killing from selenite alone, radiation alone 0.244) was 0.056. The “SF2 ER” value (LAPC-4 cells [7]; 10 μM selenite 6 hr pre radiation, SF2 without treatment divided by SF2 with selenite) was 4.36, the “surviving fraction, selenite alone” value (LAPC-4 cells [7]; 10 μM selenite for 6 hours, no radiation) was 0.431±0.021 and the SF2 (DU 145 cells; 10 μM selenite 6 hr pre 2 Gy γ-irradiation) was 0.343. For the same compound, the “SF2 ER” value (DU 145 cells; 10 μM selenite 6 hr pre radiation) was 1.62, the SF2 (DU 145 cells; 10 μM selenite 12 hr pre 2 Gy γ-irradiation) was 0.199 and the “SF2 ER” value (DU 145 cells; 10 μM selenite 12 hr pre radiation) was 2.78. For the same compound, the “surviving fraction, selenite alone” value (DU 145 cells; 10 μM selenite for 6 hours) was 0.941, the “surviving fraction, selenite alone” value (DU 145 cells; 10 μM selenite for 12 hours) was 0.409 and the tolerability (LAPC-4 tumors; selenite treated mice) was “very well tolerated”. For the same compound, the weight loss (LAPC-4 tumors; selenite treated mice compared with local tumor irradiation alone) was “no significant weight loss”.

In the case of `CCCCS(=N)(=O)CCC(N)C(=O)O` (centres unmarked) [BSO, buthionine sulfoximine, reference compound], the induction of apoptosis ([2]; BSO 500 μM for 72 hrs) is reported as “did not induce significant apoptosis”.
